Source: paper PMC7918738, “Microtubule Destabilizing Sulfonamides as an Alternative to Taxane-Based Chemotherapy” (International Journal of Molecular Sciences, 2021)
pIC50: −log10 of the molar value.

Key:
[1] = system: HeLa (cervix epithelioid carcinoma); experiment: Antiproliferative activity against HeLa (XTT colorimetric method); format: cell-based; settings: Homo sapiens, 72 h treatment
Protocol: (§1) The in vitro antiproliferative activity of MDS at 1 µM after 72 h treatments was evaluated by a colorimetric method against the human tumor cell lines HeLa (cervix epithelioid carcinoma) and MCF7 (breast adenocarcinoma). Compounds showing more than 40% inhibition at 1 µM in at least three independent assays were evaluated in a range of concentrations between 0.1 nM and 10 µM for the determination of half-maximal inhibitory concentrations (IC50) (Table 1). Paclitaxel, CA-4, and ABT-751 were used as references.
(§2) MCF7 (human breast carcinoma), SKOV-3 (human ovarian carcinoma), OVCAR-3 (human ovarian carcinoma), OVCAR-8 (human ovarian carcinoma), and HeLa (human cervical carcinoma) cell lines were cultured in Dulbecco’s Modified Eagle’s Medium (DMEM) (Gibco, Thermo Fischer Scientific) containing 10% (v/v) heat-inactivated fetal bovine serum (HIFBS) (Lonza-Cambrex, Karlskoga, Sweden), 2 mM L-glutamine (Lonza-Cambrex, Karlskoga, Sweden), 100 μg/mL streptomycin, and 100 IU/mL penicillin (Lonza-Cambrex) at 37 °C in humidified 95% air and 5% CO2. HT-29 (human colon carcinoma), IGROV-1 (human ovarian carcinoma), and A2780 (human ovarian carcinoma) cell lines were cultured in RPMI 1640 medium (Gibco, Thermo Fischer Scientific) supplemented with 10% HIFBS, 100 μg/mL streptomycin, and 100 IU/mL penicillin at 37 °C in humidified 95% air and 5% CO2 atmosphere. The presence of mycoplasma was routinely checked with MycoAlert kit (Lonza-Cambrex) and only mycoplasma-free cells were used in the experiments. Ovarian tumor cell lines were originally acquired from Dr Atanasio Pandiella from Centro de Investigación del Cáncer (CIC), Salamanca, Spain. HeLa, HT-29 and MCF7 tumor cell lines were provided by Dr Faustino Mollinedo from Centro de Investigaciones Biológicas Margarita Salas, Madrid, Spain.
(§3) MCF7, HeLa, and HT-29 cell proliferation, when treated with the corresponding compounds, were determined using the XTT (sodium 3’-[1(phenylaminocarbonyl)-3,4-tetrazolium]-bis(4-methoxy-6-nitro)-benzenesulfonic acid hydrate) cell proliferation kit (Roche Molecular Biochemicals, Mannheim, Germany). A freshly prepared mixture of XTT labeling reagent with 0.02% (v/v) PMS (N-methyl-dibenzopyrazine methyl sulfate) electron coupling reagent was added to cells (50 µL/well in 96-well plates, total volume of 160 µL/well). Cells were incubated under standard culture conditions for 4 h (MCF7 and HeLa) or 6 h (HT-29). The absorbance of the formazan product generated was measured at 450 nm using a multi-well plate reader. SKOV-3, OVCAR-3, OVCAR-8, IGROV-1, A-2780 cell proliferation, when treated with the corresponding compound, were determined using MTT (3-(4,5-dimethylthiazol-2-yl)-2,5-diphenyl-2H-tetrazolium bromide) (Sigma-Aldrich, St. Louis, MO, USA). MTT in Phosphate Buffer Saline (PBS) (5 mg/ml) was added to cells (110 µL/well in 24-well plates, total volume of 1110 µL/well). After 1 hour of incubation, the medium was aspirated, and formazan violet crystals were dissolved in dimethyl sulfoxide (DMSO) (500 µL/well). Absorbance was measured at 570 nm in a plate reader (Ultra Evolution, Tecan, Männedorf, Suiza). To determine cell viability, cells in exponential growth phase were seeded (100 µL/well in 96-well plates and 1000 µL/well in 24-well plates) with appropriate cell line concentration (1.5·10^4 cells/mL for MCF7 and HeLa, 3·10^4 cells/mL for HT-29, and 1·10^4 cells/mL for SKOV-3, OVCAR-3, OVCAR-8, IGROV-1, and A-2780) in complete RPMI 1640 or DMEM medium at 37°C and 5% CO2 atmosphere. After 24 h incubation, to allow cells to attach to the plates, all compounds were added at 1 µM concentration and the effect on the proliferation was evaluated 72 h post-treatment. Compounds showing antiproliferative effects at tested concentration were selected for IC50 calculation (50% inhibitory concentration with respect to the untreated controls) from 10^−5 to 10^−10 M concentration. Non-linear curves fitting the experimental data were carried out for each compound. […]

[2] = system: MCF7 (breast adenocarcinoma); experiment: Antiproliferative activity against MCF7 (XTT colorimetric method); format: cell-based; settings: Homo sapiens, 72 h treatment
Protocol: as §1, §2, §3

[3] = system: tubulin (microtubular protein isolated from calf brain); experiment: Tubulin Polymerization Inhibition (TPI) assay, turbidity; format: biochemical; settings: 1.5 mg/mL microtubular protein; for TPI % 10 µM: compound at 10 µM
Protocol: The effect of all the synthesized compounds on the in vitro tubulin polymerization was evaluated at 10 µM. All the compounds that inhibited polymerization more than 30% were also assayed at 20 µM. IC50 values were calculated for those compounds inhibiting tubulin polymerization by at least 50% at 20 µM (Table 1 and Supplemental Figure S2).
Microtubular protein was isolated from calf brain according to the modified Shelanski method by two cycles of temperature-dependent assembly/disassembly and stored at −80 °C. Before each use, protein concentration was determined by the Bradford method taking BSA as standard.
Tubulin polymerization was monitored using a Helios α spectrophotometer by measuring the increase in turbidity at 450 nm, caused by a shift from 4 °C to 37 °C, which allows the in vitro microtubular protein to depolymerize and polymerize, respectively. The assay was carried out in quartz cuvettes containing 1.5 mg/mL microtubular protein and the ligand (except for control cuvette with only DMSO at the same concentration) in a mixture of 0.1 M MES buffer, 1 mM EGTA, 1 mM MgCl2, 1 mM β-ME, and 1.5 mM GTP at pH 6.7 (final volume 500 µL). Cuvettes were preincubated at 20 °C for 30 min, to allow ligand binding to tubulin, and subsequently cooled on ice for 10 min. Then, the experiment starts at 4 °C to establish the initial baseline. The assembly process was initiated by a temperature shift to 37 °C and the turbidity produced by tubulin polymerization can be measured by an absorbance increase. After reaching a stable plateau, the temperature was switched back to 4 °C to return to the initial absorption values (to confirm the reversible nature of the monitored process and to determine whether or not the microtubular tubular protein has stabilized). The difference in amplitude between the stable plateau and the initial baseline of the curves was taken as the degree of tubulin polymerization for each experiment. Comparison with control curves under identical conditions but without ligands yielded TPI as a percentage value. All compounds were tested at 10 µM concentration. Compounds that inhibited tubulin polymerization by at least 30% at 10 µM were tested at 20 µM. IC50 values were calculated for compounds that inhibit tubulin polymerization by more than 50% at 20 µM. Compounds were dissolved in DMSO, and the final solvent concentration never exceeded 4% (v/v), which has been reported not to interfere with the assembly process. All the measurements were carried out in at least two independent experiments using microtubular protein from different preparations.

pIC50 [1] | pIC50 [2] | pIC50 [3] | SMILES | TPI % 10 µM [3] [%]
6.12 | 6.08 | < 4.70 | COc1ccc(S(=O)(=O)N(Cc2ccccc2)c2cc(OC)c(OC)c(OC)c2)cc1 [Compound 9] | 21
< 6.00 | < 6.00 | < 4.70 | COc1ccc(S(=O)(=O)Nc2cc(OC)c(OC)c(OC)c2[N+](=O)[O-])cc1 [Compound 11] | 10
< 6.00 | < 6.00 | < 4.70 | COc1cc(N(C(=O)OCc2ccccc2)S(=O)(=O)c2ccc(N(C)C)cc2)cc(OC)c1OC [Compound 35b] | 0
6.22 | < 6.00 | < 4.70 | CNc1ccc(S(=O)(=O)Nc2cc(OC)c(OC)c(OC)c2)cc1 [Compound 37] | 7
< 6.00 | < 6.00 | < 4.70 | COc1ccc(S(=O)(=O)Nc2cc(OC)c(OC)c(OC)c2)cc1[N+](=O)[O-] [Compound 40] | 0
< 6.00 | < 6.00 | < 4.70 | COc1ccc(S(=O)(=O)n2nnc3c(OC)c(OC)c(OC)cc32)cc1 [Compound 23] | 0
< 6.00 | < 6.00 | < 4.70 | COc1ccc(S(=O)(=O)Nc2cc(OC)c(OC)c(OC)c2NC(C)=O)cc1 [Compound 15] | 0
6.48 | 7.00 | 5.28 | COc1cc(N(Cc2ccccc2)S(=O)(=O)c2ccc(N(C)C)cc2)cc(OC)c1OC [Compound 35a] | 72
7.18 | 7.09 | < 4.70 | CCN(c1cc(OC)c(OC)c(OC)c1)S(=O)(=O)c1ccc(N(C)C)cc1 [Compound 30] | 45
< 6.00 | < 6.00 | < 4.70 | COc1ccc(S(=O)(=O)N(C(=O)OCc2ccccc2)c2cc(OC)c(OC)c(OC)c2)cc1 [Compound 10] | 11
< 6.00 | < 6.00 | < 4.70 | COc1ccc(S(=O)(=O)N(C)c2cc(OC)c(OC)c(OC)c2NC(C)=O)cc1 [Compound 16] | 0
7.60 | 7.32 | 5.43 | COc1ccc(S(=O)(=O)N(Cc2ccccc2)c2cc(OC)c(OC)c(OC)c2)cc1N [Compound 45] | 75
7.00 | 7.06 | < 4.70 | CCN(c1cc(OC)c(OC)c(OC)c1)S(=O)(=O)c1ccc(OC)cc1 [Compound 3] | 25
6.62 | 6.43 | < 4.70 | COc1ccc(S(=O)(=O)Nc2cc(OC)c(OC)c(OC)c2)cc1 [Compound 1a] | 0
6.59 | 7.02 | < 4.70 | COc1ccc(S(=O)(=O)Nc2cc(OC)c(OC)c(OC)c2)cc1N [Compound 41] | 15
7.42 | 7.85 | < 4.70 | CCN(c1cc(OC)c(OC)c(OC)c1)S(=O)(=O)c1ccc(OC)c(N)c1 [Compound 43] | 37
< 6.00 | < 6.00 | < 4.70 | COc1ccc(S(=O)(=O)Nc2cc(OC)c(OC)c(OC)c2N)cc1 [Compound 12] | 0
6.66 | 6.47 | < 4.70 | CCOC(=O)CN(c1cc(OC)c(OC)c(OC)c1)S(=O)(=O)c1ccc(OC)cc1 [Compound 7] | 21
7.26 | 6.92 | < 4.70 | COc1cc(N(CC#N)S(=O)(=O)c2ccc(N(C)C)cc2)cc(OC)c1OC [Compound 32] | 17
< 6.00 | < 6.00 | < 4.70 | COc1ccc(S(=O)(=O)Nc2cc(OC)c(OC)c(OC)c2Br)cc1 [Compound 20] | 0
< 6.00 | < 6.00 | < 4.70 | COc1ccc(S(=O)(=O)Nc2cc(OC)c(OC)c(OC)c2N(C)C)cc1 [Compound 18] | 0

SMILES | pIC50 [1] | pIC50 [2] | pIC50 [3] | TPI % 10 µM [3] [%]
COc1ccc(/C=C\c2cc(OC)c(OC)c(OC)c2)cc1O [Combretastatin A-4, reference compound] | 8.70 | […] | […] | […]
